According to PMC7335011 (The Journal of General Physiology, 2020):

Biological target: MthK (Methanothermobacter thermautotrophicus, UniProt O27564)
Assay type: biochemical

| IC50 | SMILES |
| --- | --- |
| 860 ± 20 µM | NCCCCNCCCN [SPD^3+] |
| 77 ± 6 µM | NCCCNCCCCNCCCN [SPM^4+] |
